The nature of data set [1]: Kinematic viscosity at 25° C. (ASTM D-445-97). The format is physicochemical. How it is done:
Kinematic viscosity was tested at 25° C. using ASTM (American Society of Testing and Materials, West Conshohocken, Pa., United States of America) Official Method No. D-445-97 (1997), the contents of which are incorporated herein by reference. Color was measured using ASTM D-1209-97 (1997), acid value was determined using ASTM D-972-95 (1995) and hydroxyl number was determined using a modified version of AOCS (American Oil Chemists Society, Champaign, Ill., United States of America) Official Method No. Cd-13-60 (1997), the contents of which are incorporated herein by reference. Odor was determined using a subjective olfactory assessment.

The nature of data set [2]: Spreading characteristics on WHATMAN filter paper (50 microliters). The note with it: for Spreadibility (1 minute) / Spreadibility (3 minutes) / Spreadibility (5 minutes): 50 microliters on filter paper. The class given is physicochemical. How it is done:
The spreading characteristics of fluid used in personal care products are an effective predictor of “skin feel.” To test the spreading characteristics a four inch WHATMAN® filter paper was positioned horizontally over an eight ounce jar. Fifty microliters of each product were then pipetted onto the center of the filter paper. The spreading area of the liquid was then measured at intervals of one, three, and five minutes. Faster spreading products will have a higher spreading area at each time interval.

Consider `CCCCCC(=O)OCCOCCOC(=O)CCCCC` [DEGDH, diethylene glycol dihexanoate], for which the “Viscosity at 25° C.” value in data set [1] came to 14.4 cSt. Besides, in data set [2], the “Spreadibility (1 minute)” value was 2.98 cm, the “Spreadibility (3 minutes)” value stood at 3.43 cm and the “Spreadibility (5 minutes)” value worked out at 3.68 cm.
Consider `C[Si]1(C)O[Si](C)(C)O[Si](C)(C)O[Si](C)(C)O1` [Example D4, reference compound], for which, in data set [2], the “Spreadibility (1 minute)” value was determined as 3.10 cm, the “Spreadibility (3 minutes)” value is listed as 3.50 cm and the “Spreadibility (5 minutes)” value stood at 3.60 cm.
`C[Si]1(C)O[Si](C)(C)O[Si](C)(C)O[Si](C)(C)O[Si](C)(C)O1` [Example D5, reference compound]: the “Viscosity at 25° C.” value in data set [1] is on record as 4.0 cSt. In data set [2], the “Spreadibility (1 minute)” value is given as 2.90 cm, the “Spreadibility (3 minutes)” value came out at 3.40 cm and the “Spreadibility (5 minutes)” value is given as 3.60 cm. Moreover, in data set [2] (listed as D5 Fluid), the “Spreadibility (1 minute)” value came out at 2.9 cm, the “Spreadibility (3 minutes)” value is given as 3.4 cm and the “Spreadibility (5 minutes)” value was 3.6 cm.
For the molecule `CCC(CC)C(=O)OCC(C)(C)COC(=O)C(CC)CC` [ND2EB, neopentyl glycol di-2-ethylbutyrate], the “Viscosity at 25° C.” value in data set [1] was 7.6 cSt. Moreover, in data set [2], the “Spreadibility (1 minute)” value was determined as 3.00 cm, the “Spreadibility (3 minutes)” value was found to be 3.43 cm and the “Spreadibility (5 minutes)” value is 3.63 cm.
As for `CC(C)C(=O)OCC(C)(C)COC(=O)C(C)C` [NDI], in data set [1], the “Viscosity at 25° C.” value was determined as 3.5 cSt. In data set [2], the “Spreadibility (1 minute)” value turned out to be 3.18 cm, the “Spreadibility (3 minutes)” value was found to be 3.63 cm and the “Spreadibility (5 minutes)” value came out at 3.88 cm.
On to `CCCCC(=O)OCC(C)(C)COC(=O)CCCC` [NDP, neopentyl glycol dipentanoate], for which the “Viscosity at 25° C.” value in data set [1] stood at 5.1 cSt. This molecule also gave a viscosity in data set [1] (stated in description) of 5.1 centistokes. In data set [2], the “Spreadibility (1 minute)” value turned out to be 3.08 cm, the “Spreadibility (3 minutes)” value amounted to 3.48 cm and the “Spreadibility (5 minutes)” value is recorded as 3.85 cm. Also, in data set [2] (stated in description), the “spreading (in words)” value is given as “rapidly spreading”.
